Experimental findings from US9226916B2, “Pyrrolidine derivatives” (HOFFMANN-LA ROCHE INC., priority 2009, dated 2016) are described below.

Read-outs that look alike come from different tables or passages of the source.

The experiment deals with T1, recombinant human NK3 receptor (Homo sapiens, UniProt P29371).
T1 construct: expressed in transfected cells; host or cells: HEK293 cells, transient expression; membranes
T1 sequence (P29371 1-465): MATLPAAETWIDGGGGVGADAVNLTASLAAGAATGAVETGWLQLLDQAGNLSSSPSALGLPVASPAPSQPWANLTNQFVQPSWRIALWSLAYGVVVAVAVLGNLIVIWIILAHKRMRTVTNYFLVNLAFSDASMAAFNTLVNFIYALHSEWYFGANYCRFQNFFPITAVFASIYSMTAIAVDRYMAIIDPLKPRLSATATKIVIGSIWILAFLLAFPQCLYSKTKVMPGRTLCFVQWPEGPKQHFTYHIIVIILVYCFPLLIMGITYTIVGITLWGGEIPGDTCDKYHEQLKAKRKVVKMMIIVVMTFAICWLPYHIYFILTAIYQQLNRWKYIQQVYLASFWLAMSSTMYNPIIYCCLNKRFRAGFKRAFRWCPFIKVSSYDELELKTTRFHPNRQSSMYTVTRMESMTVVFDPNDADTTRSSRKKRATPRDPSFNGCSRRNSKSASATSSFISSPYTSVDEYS
As to the kind of experiment: [3H]SR142801 competition binding assay.

Setting [1] is: hNK-3 receptor affinity, membranes from HEK293 cells transiently expressing recombinant human NK3 receptor, [3H]SR142801, Cheng-Prussoff, read-out: Data Ki.

A word on the Ki: it is the dissociation constant of the complex between target and ligand, obtained from inhibition or displacement. For `COCCOC(=O)N(C)[C@@H]1CN(C(=O)C2CCN(c3ccc(C#N)cn3)CC2)C[C@H]1c1ccc(Cl)cc1` [Example 206, [(3S,4R)-4-(4-Chloro-phenyl)-1-(5′-cyano-3,4,5,6-tetrahydro-2H-[1,2′]bipyridinyl-4-carbonyl)-pyrrolidin-3-yl]-methyl-carbamic acid 2-methoxy-ethyl ester], the Ki under setting [1] stood at 90.6 nM. With `CN(C(=O)Oc1ccc(C(F)(F)F)cc1)[C@@H]1CN(C(=O)C2CCN(c3ccc(C#N)cn3)CC2)C[C@H]1c1ccc(Cl)cc1` [Example 207, [(3S,4R)-4-(4-Chloro-phenyl)-1-(5′-cyano-3,4,5,6-tetrahydro-2H-[1,2′]bipyridinyl-4-carbonyl)-pyrrolidin-3-yl]-methyl-carbamic acid 4-trifluoromethyl-phenyl ester], the Ki was found to be 0.6 nM.

Regarding `CN(C(=O)Oc1ccc(F)cc1F)[C@@H]1CN(C(=O)C2CCN(c3ccc(C#N)cn3)CC2)C[C@H]1c1ccc(Cl)cc1` [Example 208, [(3S,4R)-4-(4-Chloro-phenyl)-1-(5′-cyano-3,4,5,6-tetrahydro-2H-[1,2′]bipyridinyl-4-carbonyl)-pyrrolidin-3-yl]-methyl-carbamic acid 2,4-difluoro-phenyl ester], the Ki is 0.4 nM. With `CN(C(=O)Oc1ccc(F)c(F)c1)[C@@H]1CN(C(=O)C2CCN(c3ccc(C#N)cn3)CC2)C[C@H]1c1ccc(Cl)cc1` [Example 209, [(3S,4R)-4-(4-Chloro-phenyl)-1-(5′-cyano-3,4,5,6-tetrahydro-2H-[1,2′]bipyridinyl-4-carbonyl)-pyrrolidin-3-yl]-methyl-carbamic acid 3,4-difluoro-phenyl ester], the inhibitory constant (Ki) stood at 0.8 nM.

For the compound `CN(C(=O)Oc1cc(F)cc(F)c1)[C@@H]1CN(C(=O)C2CCN(c3ccc(C#N)nc3)CC2)C[C@H]1c1ccc(Cl)cc1` [Example 210, [(3S,4R)-4-(4-Chloro-phenyl)-1-(6′-cyano-3,4,5,6-tetrahydro-2H-[1,3]bipyridinyl-4-carbonyl)-pyrrolidin-3-yl]-methyl-carbamic acid 3,5-difluoro-phenyl ester], the Ki (read-out: Data Ki) came to 4.6 nM. For the compound `CN(C(=O)Oc1cccc(F)c1F)[C@@H]1CN(C(=O)C2CCN(c3ccc(C#N)cn3)CC2)C[C@H]1c1ccc(Cl)cc1` [Example 211, [(3S,4R)-4-(4-Chloro-phenyl)-1-(5′-cyano-3,4,5,6-tetrahydro-2H-[1,2′]bipyridinyl-4-carbonyl)-pyrrolidin-3-yl]-methyl-carbamic acid 2,3-difluoro-phenyl ester], the inhibition constant Ki is 2.4 nM.

On to `CN(C(=O)Oc1ccccc1F)[C@@H]1CN(C(=O)C2CCN(c3ccc(C#N)cn3)CC2)C[C@H]1c1ccc(Cl)cc1` [Example 212, [(3S,4R)-4-(4-Chloro-phenyl)-1-(5′-cyano-3,4,5,6-tetrahydro-2H-[1,2′]bipyridinyl-4-carbonyl)-pyrrolidin-3-yl]-methyl-carbamic acid 2-fluoro-phenyl ester], for which the Ki stood at 1.4 nM. The same measure, in the same setting: under `CN(C(=O)Oc1ccccc1Cl)[C@@H]1CN(C(=O)C2CCN(c3ccc(C#N)cn3)CC2)C[C@H]1c1ccc(Cl)cc1` [Example 213, [(3S,4R)-4-(4-Chloro-phenyl)-1-(5′-cyano-3,4,5,6-tetrahydro-2H-[1,2′]bipyridinyl-4-carbonyl)-pyrrolidin-3-yl]-methyl-carbamic acid 2-chloro-phenyl ester] stands 7.2 nM. On to `CN(C(=O)OCCCF)[C@@H]1CN(C(=O)C2CCN(c3ccc(C#N)cn3)CC2)C[C@H]1c1ccc(Cl)cc1` [Example 214, [(3S,4R)-4-(4-Chloro-phenyl)-1-(5′-cyano-3,4,5,6-tetrahydro-2H-[1,2′]bipyridinyl-4-carbonyl)-pyrrolidin-3-yl]-methyl-carbamic acid 3-fluoro-propyl ester], for which, under setting [1], the Ki came out at 94.2 nM. Same read-out and setting: the figure for `CN(C(=O)OCC1CC1)[C@@H]1CN(C(=O)C2CCN(c3ccc(C#N)cn3)CC2)C[C@H]1c1ccc(Cl)cc1` [Example 215, [(3S,4R)-4-(4-Chloro-phenyl)-1-(5′-cyano-3,4,5,6-tetrahydro-2H-[1,2′]bipyridinyl-4-carbonyl)-pyrrolidin-3-yl]-methyl-carbamic acid cyclopropylmethyl ester] is 8.4 nM; for `COCCCOC(=O)N(C)[C@@H]1CN(C(=O)C2CCN(c3ccc(C#N)cn3)CC2)C[C@H]1c1ccc(Cl)cc1` [Example 216, [(3S,4R)-4-(4-Chloro-phenyl)-1-(5′-cyano-3,4,5,6-tetrahydro-2H-[1,2′]bipyridinyl-4-carbonyl)-pyrrolidin-3-yl]-methyl-carbamic acid 3-methoxy-propyl ester] it is 53.6 nM. Still for that read-out and setting: under `CN(C(=O)OCC1(C)CC1)[C@@H]1CN(C(=O)C2CCN(c3ccc(C#N)cn3)CC2)C[C@H]1c1ccc(Cl)cc1` [Example 217, [(3S,4R)-4-(4-Chloro-phenyl)-1-(5′-cyano-3,4,5,6-tetrahydro-2H-[1,2′]bipyridinyl-4-carbonyl)-pyrrolidin-3-yl]-methyl-carbamic acid 1-methyl-cyclopropylmethyl ester] stands 7.7 nM. Same read-out and setting: the figure for `CN(C(=O)OCC1(C)COC1)[C@@H]1CN(C(=O)C2CCN(c3ccc(C#N)cn3)CC2)C[C@H]1c1ccc(Cl)cc1` [Example 218, [(3S,4R)-4-(4-Chloro-phenyl)-1-(5′-cyano-3,4,5,6-tetrahydro-2H-[1,2′]bipyridinyl-4-carbonyl)-pyrrolidin-3-yl]-methyl-carbamic acid 3-methyl-oxetan-3-ylmethyl ester] is 19.5 nM.

Regarding `CN(C(=O)OCCC1CC1)[C@@H]1CN(C(=O)C2CCN(c3ccc(C#N)cn3)CC2)C[C@H]1c1ccc(Cl)cc1` [Example 219, [(3S,4R)-4-(4-Chloro-phenyl)-1-(5′-cyano-3,4,5,6-tetrahydro-2H-[1,2′]bipyridinyl-4-carbonyl)-pyrrolidin-3-yl]-methyl-carbamic acid 2-cyclopropyl-ethyl ester], the Ki under setting [1] amounted to 3.6 nM. With `CN(C(=O)O[C@H]1CC[C@@H](C)CC1)[C@@H]1CN(C(=O)C2CCN(c3ccc(C#N)cn3)CC2)C[C@H]1c1ccc(Cl)cc1` [Example 220, [(3S,4R)-4-(4-Chloro-phenyl)-1-(5′-cyano-3,4,5,6-tetrahydro-2H-[1,2′]bipyridinyl-4-carbonyl)-pyrrolidin-3-yl]-methyl-carbamic acid 4-methyl-cyclohexyl ester], the Ki was 42.8 nM. On the same count and under the same terms, under `CN(C(=O)O[C@H]1CC[C@H](C)CC1)[C@@H]1CN(C(=O)C2CCN(c3ccc(C#N)cn3)CC2)C[C@H]1c1ccc(Cl)cc1` [Example 221, [(3S,4R)-4-(4-Chloro-phenyl)-1-(5′-cyano-3,4,5,6-tetrahydro-2H-[1,2′]bipyridinyl-4-carbonyl)-pyrrolidin-3-yl]-methyl-carbamic acid 4-methyl-cyclohexyl ester] stands 1 nM; under `CN(C(=O)Oc1ccc(S(C)(=O)=O)cc1)[C@@H]1CN(C(=O)C2CCN(c3ccc(C#N)cn3)CC2)C[C@H]1c1ccc(Cl)cc1` [Example 224, [(3S,4R)-4-(4-Chloro-phenyl)-1-(5′-cyano-3,4,5,6-tetrahydro-2H-[1,2′]bipyridinyl-4-carbonyl)-pyrrolidin-3-yl]-methyl-carbamic acid 4-methanesulfonyl-phenyl ester], 22.8 nM.
